Assay results: patent publication US4746678A, “Phenanthrene derivatives” (EGIS Gyoryszergyar, priority 1985, dated 1988)

Key:
[1] = test system: bean rust (Uromyces apperdiculatus); assay: in vivo test on "pinto" bean against bean rust; set-up: species or system "pinto" bean (host plant); details: spray at a concentration of 500 ppm; symptoms 7-8 days after infection
Experimental: A further test is carried out on "pinto" bean species against bean rust (Uromyces apperdiculatus). Into each cultivating dish three seeds are sown in a 1:1:0.035 mixture of sand, perlite and super compost. Two-leave staged bean plants subjected to 7-9 days' glass house pre-cultivation are treated with the test compound and the treated plants are inoculated. The concentration of the spore suspension amounts to 0.1 g/10 ml and 2.5 ml of spore suspension are used for each cultivating dish. After inoculation the plants are incubated at 20° C. under a relative moisture content of 100% for 48 hours. The symptoms manifest themselves 7-8 days after infection. Three replicates are used; untreated control treatment is also carried out and the commercial product "Dithane M 45" serves as reference.

wheat powdery mildew = assay: in vivo test against wheat powdery mildew; set-up: species or system "MV-4" wheat (host plant); details: identical test conditions
Experimental: In vivo tests are carried out against cereals powdery mildew.
In vivo activity is tested against wheat powdery mildew in a phytobox of the Conviron type, at 20° C., a relative humidity of 90% and a light intensity of 9000 lux. As host plant the elite propagating seed grain material of officially qualified "MV-4" wheat species is used. Wheat plants are cultivated in 6 days' periods, in cultivating dishes (diameter 11 cm) containing a 1:1 mixture of sand and perlite. Each dish contains 160 plants; at the beginning of the treatment the plants were 5-6 cm high. High dispersity grade aqueous suspensions or acetonic solutions of the test compound are prepared and 8 ml of each suspension or solution, respectively, are applied onto the plants by means of a spraying apparatus operated by gaseous nitrogen. Inoculation is carried out 24 days after the fungicidal treatment. The test units are placed in three replicates and in random block arrangement in the phytotron. The rate of infectedness is determined on the 8th day after inoculation. Numerical evaluation is accomplished on the basis of the method described by Hinfner and Papp by observing separately 50-60 plants.
The results are expressed as ED50 and ED90 values of the test compounds being calculated from the co-relation of effect and concentration by means of mathematical-biometrical methods. […]

Row | SMILES | inhibition of bean rust infection [1] | activity relative to the most efficient novel compounds (products of Examples 7 and 8) (wheat powdery mildew)
1 | CCCCNC(=O)ON=C1C(=O)c2ccccc2-c2ccccc21 [Example 7, 9,10-phenanthrene-dione-9-(n-butyl-aminocarbonyl)-oxime] | 100% | –
2 | CCCCNC(=O)n1c(NC(=O)OC)nc2ccccc21 [Reference compound, methyl-1-(n-butylcarbamoyl)-2-benzimidazole-carbamate] | – | lower activity
3 | C/C=C/C(=O)Oc1c(C(C)CCCCCC)cc([N+](=O)[O-])cc1[N+](=O)[O-] (stereo not shown) [6-(1-methyl-heptyl-2,4-dinitro-phenyl-crotonate)] | – | lower activity
4 | CNC(=O)ON=C1C(=O)c2ccccc2-c2ccccc21 [Example 8, 9,10-Phenanthrene-dione-9-(methylaminocarbonyl)-oxime] | 100% | –
